From patent US8252841B2, “Methods of inhibiting bacterial virulence and compounds relating thereto” (priority 2007, dated 2012)
Values joined by “and” are separate entries in the source; they are usually repeats but may differ in a detail not shown here. Equal values may be shown once. “Also recorded” adds a separate entry of the source.

Assays:
sifA virulence gene = type: cell-based, Salmonella typhimurium
[1] = Pharmacokinetic analysis in mice
EHEC AE lesion formation = test: Fluorescein actin staining (FAS) test, AE lesion formation on HeLa cells; type: cell-based, enterohemorrhagic E. coli (EHEC)
[2] = system: F. tularensis virulence genes; type: cell-based, Francisella tularensis
EHEC strain 8624 [3] = test: Western blot of EHEC secreted proteins EspA and EspB; type: cell-based, enterohemorrhagic E. coli (EHEC); conditions: 50 μM epinephrine plus 5 nM or 5 pM LED209
EHEC = system: EHEC; design: species or system New Zealand White rabbits; conditions: rabbit, in vivo
[4] = system: Salmonella typhimurium strain SL1344; type: cell-based
EHEC strain 8624 [5] = type: cell-based, enterohemorrhagic E. coli (EHEC)
[6] = system: β1, β2 and β3 adrenergic receptors; test: Live-cell intracellular cAMP (EPAC-based BRET reporter) in HEK293 cells; design: species or system human
[7] = system: F. tularensis SCHU S4 in J774 murine macrophages; type: cell-based, Francisella tularensis
QseC [8] = target: T1, QseC (Escherichia coli O157:H7, UniProt Q8X524); test: Binding of tritiated norepinephrine to QseC in liposomes; design: species or system E. coli; conditions: 5 μM tritiated NE
T1 construct: His (C); made in house; host or cells: E. coli (arabinose-induced, pVS155), nickel column purification

[9] = system: bacterial cells (strain MCAmp); test: Secondary screen with bla::lacZ chromosomal reporter to eliminate toxic compounds and general transcription inhibitors
[10] = Toxicology studies in mice; conditions: 20 mg/kg oral gavage daily for 5 days
[11] = system: F. tularensis strain SCHU S4; conditions: mouse, in vivo
QseC [12] = target: T1, QseC; test: QseC autophosphorylation in liposomes; type: biochemical, E. coli
F. tularensis strain LVS = type: cell-based, Francisella tularensis
[13] = system: S. typhimurium strain SL1344; design: species or system mice (129×1/SvJ); conditions: mouse, in vivo
[14] = system: EHEC virulence genes (ler, eae, flhDC, stx2A); type: cell-based, enterohemorrhagic E. coli (EHEC)
[15] = CD-1 female mice, 20, 10 and 5 mg/kg IV bolus

T1 sequence (Q8X524 whole entry): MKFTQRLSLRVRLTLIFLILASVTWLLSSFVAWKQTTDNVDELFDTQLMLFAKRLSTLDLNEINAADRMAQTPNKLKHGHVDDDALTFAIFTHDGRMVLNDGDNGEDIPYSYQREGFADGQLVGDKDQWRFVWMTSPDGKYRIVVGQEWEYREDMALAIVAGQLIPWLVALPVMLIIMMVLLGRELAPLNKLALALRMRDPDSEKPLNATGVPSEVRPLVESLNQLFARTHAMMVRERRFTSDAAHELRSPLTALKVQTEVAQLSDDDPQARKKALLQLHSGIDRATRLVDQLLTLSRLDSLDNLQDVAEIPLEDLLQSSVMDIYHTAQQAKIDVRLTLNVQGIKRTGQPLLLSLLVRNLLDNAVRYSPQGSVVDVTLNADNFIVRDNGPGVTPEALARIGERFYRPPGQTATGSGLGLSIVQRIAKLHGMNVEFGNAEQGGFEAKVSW

## CC(=O)Nc1ccc(S(=O)(=O)Nc2ccccc2)cc1
other
  melting point: 209 to 210 °C

## O=S(=O)(Nc1ccccc1)c1ccc(NC(=S)Nc2ccccc2)cc1 [LED209, N-phenyl-4-[[(phenylamino)thioxomethyl]amino]benzenesulfonamide]
sifA virulence gene
  expression of the sifA virulence gene: diminished
[1]; [15]
  AUC versus dose: increases proportionally with dose
  linearity of pharmacokinetics: linear
[1]; female, CD-1, mouse, plasma, oral, 20 mg/kg
  bioavailability: ~70%
[1]; mice
  oral bioavailability (in words): orally bioavailable
EHEC AE lesion formation; 5 pM
  EHEC AE lesion formation on cultured epithelial cells: abolished
EHEC AE lesion formation; 5 μM and 5 pM
  AE lesions (pedestals): There are no pedestals
[2]
  expression of F. tularensis virulence genes, including qseC: decreased
EHEC strain 8624 [3]
  secretion of EspA and EspB: inhibited the secretion
EHEC
  EHEC colonization of the intestine: modest (and non-statistically significant) reduction
EHEC; 20 mg/kg
  EHEC colonization, colon: only a mild non-statistically significance difference
  EHEC colonization, ileum and cecum: no differences between treated and untreated animals
[4]
  S. typhimurium growth in vitro: does not hinder growth; also recorded: did not influence
EHEC strain 8624 [5]
  EHEC growth: does not hinder growth; also recorded: does not kill or hinder EHEC growth
[6]; 5 μM with dobutamine, terbutaline or BRL37344
  block of activation by β-adrenergic-specific agonists (cAMP generation): nor does it block the activation
[6]; 5 μM, no agonist
  activation of β adrenergic receptors (cAMP generation): does not activate any of the 3 classes of β adrenergic receptors
[6]; live cell-based assays
  interference with adrenergic signaling: does not interfere with mammalian adrenergic signaling; also recorded: not influence signaling
[7]
  reduction of F. tularensis SCHU-S4 recovered from macrophages: 10 fold
QseC [8]; 5 pM LED209
  binding of norepinephrine to QseC: inhibits binding; also recorded: directly antagonized
QseC [8]; 5 fM LED209
  binding of norepinephrine to QseC: does not
[9]
  toxicity against bacterial cells: no toxicity against bacterial cells
[10]
  pathology of duodenum, colon, liver, kidney, spleen and heart sections: did not reveal any observable pathology
[10]; vs vehicle
  mice weights: no significant differences
  organ weights: no significant differences in the organ weights
[11]; female, C3H HeN, po, 20 mg/kg
  deaths of mice treated with LED209 alone: none of the mice treated with LED209 alone died
[11]
  survival of infected mice at 175 hours post-infection: 60% and 75%
[11]; po, 20 mg/kg
  overt toxicity: no overt toxicity
  survival of infected mice 9 days post-infection: 80%
QseC [12]; in response to 50 μM epinephrine, 5 pM LED209
  QseC autophosphorylation: inhibited
F. tularensis strain LVS
  F. tularensis growth: does not hinder growth
[13]
  reduction of S. typhimurium cfus recovered from spleens and livers: ~10 fold
  survival of infected mice 24 hours after infection: 80%
  survival of infected mice up to day 12: 20%
[14]
  QseC-dependent virulence gene expression in response to AI-3: inhibited
  QseC-dependent virulence gene expression in response to epinephrine: inhibited
  expression of the stxAB genes: decreases
  trigger the EHEC SOS response: does not

## Cc1ccc(N(CC2=NCCN2)c2cccc(O)c2)cc1 [phentolamine, reference compound]
QseC [8]; 50 μM adrenergic antagonist
  binding of norepinephrine to QseC: inhibited; also recorded: antagonizes this binding
QseC [12]; adrenergic antagonist
  QseC autophosphorylation: block QseC autophosphorylation

## CC(C)NCC(O)COc1cccc2ccccc12 (centres unmarked) [propranolol, reference compound]
QseC [8]; 50 μM adrenergic antagonist
  binding of norepinephrine to QseC: has no effect on QseC
